BindingDB's records for doi:10.1111/cbdd.12579 (University of Karachi, 2015)

Columns and labels:
[1] = biological target: Carboxylic ester hydrolase (Equus caballus, UniProt Q9N1N9); assay: AChE and BChE Inhibition Assay; details: pH 8; 25 °C
Protocol: (§1) A […] well plate was used for screening purpose. Each pyridopyrazine derivative was first dissolved in dimethyl sulfoxide to prepare the stock solutions. The synthetic compounds were then screened against electric eel acetylcholinesterase (eeAChE) and equine butyrylcholinesterase (BChE) at different concentrations (1 µM or 10 µM) of dimethyl sulfoxide as negative control in primarily screening. […] The reaction mixture which comprised of buffer solution (20 µL), synthetic compound (10 µL) and enzyme (0.5 and 3.4 U/mg, eeAChE or equine BChE) was primarily incubated for ten minutes at room temperature (25 C). Subsequently to the mixture, once the preincubation over, the acetylthiocholine iodide or butyrylthiocholine chloride (10 μL of 10 mM) was added and incubated it further for

Acetylcholinesterase = Acetylcholinesterase (Electrophorus electricus, UniProt O42275); assay: AChE and BChE Inhibition Assay; details: pH 8; 25 °C
Protocol: as §1

Chain of Acetylcholinesterase (O42275 whole entry): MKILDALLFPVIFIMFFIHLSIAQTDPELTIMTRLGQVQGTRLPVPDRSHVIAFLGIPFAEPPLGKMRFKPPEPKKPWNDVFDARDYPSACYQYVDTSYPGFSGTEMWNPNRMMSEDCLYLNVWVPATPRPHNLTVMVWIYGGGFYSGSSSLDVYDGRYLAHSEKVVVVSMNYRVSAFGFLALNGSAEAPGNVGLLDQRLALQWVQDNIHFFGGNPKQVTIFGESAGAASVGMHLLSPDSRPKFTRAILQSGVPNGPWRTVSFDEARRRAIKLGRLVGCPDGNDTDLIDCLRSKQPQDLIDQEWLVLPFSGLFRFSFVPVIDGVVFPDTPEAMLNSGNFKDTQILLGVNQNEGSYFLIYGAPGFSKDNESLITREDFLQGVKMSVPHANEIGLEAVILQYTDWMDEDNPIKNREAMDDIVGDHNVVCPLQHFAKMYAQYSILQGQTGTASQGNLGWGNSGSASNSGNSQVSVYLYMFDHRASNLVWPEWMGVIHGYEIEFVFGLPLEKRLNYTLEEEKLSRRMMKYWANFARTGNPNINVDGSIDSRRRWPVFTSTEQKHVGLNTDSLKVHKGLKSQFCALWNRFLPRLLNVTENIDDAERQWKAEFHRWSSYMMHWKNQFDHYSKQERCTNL
Chain of Carboxylic ester hydrolase (Q9N1N9 whole entry): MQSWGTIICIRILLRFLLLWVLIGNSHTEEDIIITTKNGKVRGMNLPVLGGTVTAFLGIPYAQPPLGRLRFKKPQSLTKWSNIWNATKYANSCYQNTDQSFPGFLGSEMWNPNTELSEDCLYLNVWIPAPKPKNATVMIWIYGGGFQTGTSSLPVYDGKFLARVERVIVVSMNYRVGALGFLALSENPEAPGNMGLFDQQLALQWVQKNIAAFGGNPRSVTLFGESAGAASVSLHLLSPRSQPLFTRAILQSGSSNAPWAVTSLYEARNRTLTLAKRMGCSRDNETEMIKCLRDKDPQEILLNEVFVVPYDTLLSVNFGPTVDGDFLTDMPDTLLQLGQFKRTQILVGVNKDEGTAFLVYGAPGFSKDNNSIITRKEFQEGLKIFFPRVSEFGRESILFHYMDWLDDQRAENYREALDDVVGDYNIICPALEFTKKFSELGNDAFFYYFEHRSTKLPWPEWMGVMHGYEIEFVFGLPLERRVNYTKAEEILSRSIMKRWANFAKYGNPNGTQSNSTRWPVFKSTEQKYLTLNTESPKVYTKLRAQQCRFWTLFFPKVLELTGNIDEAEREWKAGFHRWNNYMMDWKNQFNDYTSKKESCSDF

SMILES	IC50 [1] [µM]	IC50 (Acetylcholinesterase) [µM]
c1ccc(-c2cnc3cccnc3n2)cc1 [3-Phenylpyrido[2,3-b]pyrazine (6a)]	35.4	9.65
c1cnc2nc3c(nc2c1)CCCC3 [6,7,8,9-tetrahydropyrido[2,3-b]quinoxaline (6q)]	10.9	5.78
Fc1cccc(-c2cnc3cccnc3n2)c1 [3-(3′-Fluorophenyl)pyrido[2,3-b]pyrazine (6f)]	79.8	0.899
Brc1ccccc1-c1cnc2cccnc2n1 [3-(2′-Bromophenyl)pyrido[2,3-b]pyrazine (6k)]	7.45	4.03
O=[N+]([O-])c1ccc(-c2cnc3cccnc3n2)cc1 [3-(4′-Nitrophenyl)pyrido[2,3-b]pyrazine (6m)]	20.8	1.97
Cc1cccc(-c2cnc3cccnc3n2)c1 [3-(3′-Methylphenyl)pyrido[2,3-b]pyrazine (6c)]	0.583	5.88
Cc1ccccc1-c1cnc2cccnc2n1 [3-(2′-Methylphenyl)pyrido[2,3-b]pyrazine (6d)]	21.2	5.39
Clc1ccc(-c2cnc3cccnc3n2)cc1 [3-(4′-Chlorophenyl)pyrido[2,3-b]pyrazine (6g)]	2.63	2.59
Clc1cccc(-c2cnc3cccnc3n2)c1 [3-(3′-Chlorophenyl)pyrido[2,3-b]pyrazine (6h)]	12.1	1.26
O=[N+]([O-])c1cccc(-c2cnc3cccnc3n2)c1 [3-(3′-Nitrophenyl)pyrido[2,3-b]pyrazine (6n)]	1.89	0.466
CN(C)C(=O)Oc1cccc([N+](C)(C)C)c1 [m-Trimethylammoniumphenyldimethylcarbamate]	49.6	–
Fc1ccc(-c2cnc3cccnc3n2)cc1 [3-(4′-Fluorophenyl)pyrido[2,3-b]pyrazine (6e)]	11.2	2.45
Clc1ccccc1-c1cnc2cccnc2n1 [3-(2′-Chlorophenyl)pyrido[2,3-b]pyrazine (6i)]	9.67	2.52
O=[N+]([O-])c1ccccc1-c1cnc2cccnc2n1 [3-(2′-Nitrophenyl)pyrido[2,3-b]pyrazine (6o)]	22.3	3
Cc1ccc(-c2cnc3cccnc3n2)cc1 [3-(4′-Methylphenyl)pyrido[2,3-b]pyrazine (6b)]	6.44	3.06
Brc1cccc(-c2cnc3cccnc3n2)c1 [3-(3′-Bromophenyl)pyrido[2,3-b]pyrazine (6j)]	11.5	3.12
c1cnc2nc(-c3ccc(N4CCCCC4)cc3)cnc2c1 [3-(4′-(Piperidin-1-yl)phenyl)pyrido[2,3-b]pyrazine (6p)]	3.91	4.75
Ic1ccc(-c2cnc3cccnc3n2)cc1 [3-(4′-Iodophenyl)pyrido[2,3-b]pyrazine (6l)]	31.2	4.05
